The values that follow come from patent US20230227476A1, “GALLIUM-SALOPHEN ANTIMICROBIAL COMPOUNDS AND METHODS OF USE THEREOF” (priority 2020, published 2023).

Data set [1] deals with T1, HasAp (Pseudomonas aeruginosa, UniProt G3XD33). As to the kind of experiment: Binding affinity to HasAp by fluorescence quenching. The following applies: for Kd: read-out: KD (nM), binding affinities of ligands to HasAp, fluorescence quenching, 1 μM apo-HasAp, 20 mM sodium phosphate pH 7.4, 25° C.; for binding to HasAp weaker than heme: relative to heme. The method, then: Binding Affinity Determination by Fluorescence Quenching. Binding affinities were determined on an ISS K2 multifrequency fluorometer in L-format using 1 cm quartz cuvettes. To a 1 μM solution of apo-HasAp in 20 mM sodium phosphate buffer (pH 7.4, 25° C.) was titrated ligand of interest. Emission spectra were recorded (300-500 nm) following excitation at 295 nm. The decrease in maximum emission was plotted against the ligand concentration (accounting for dilution) and fit to one-site binding using GraphPad Prism 8.
T1 sequence (G3XD33 entry or part of it): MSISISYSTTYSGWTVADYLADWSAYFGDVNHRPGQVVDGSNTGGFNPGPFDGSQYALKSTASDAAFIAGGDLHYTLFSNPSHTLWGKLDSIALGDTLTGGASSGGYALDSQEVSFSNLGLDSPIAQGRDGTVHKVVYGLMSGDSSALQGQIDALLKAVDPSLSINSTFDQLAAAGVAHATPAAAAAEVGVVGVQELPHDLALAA
Determine binding affinities (KD) by FQ. KD values of all synthesized compounds are calculated by FQ using previously described methods. Binding affinities are determined in a final volume of 200 μL in black flat-bottom 96-well plates using microplate reader. HasAp concentration is kept at 1.0 μM in Tris-HCl buffer (20 mM, pH 8.0). Inhibitors solvated in DMSO are added across a concentration range of 0.01 to 100 μM. The HasAp excitation (295 nm) emission spectrum is recorded from 300-500 nm. The KD values are calculated from plots of total binding vs. ligand concentration, where total binding corresponds to the fraction of binding sites represented by the decrease in fluorescence at the maximum emission (332 nm). All experiments are performed in triplicate.

The target of data set [2] is T1, HasAp. As to the kind of experiment: Circular dichroism thermal denaturation of HasAp. The following applies: circular dichroism at 222 nm, 10 μM HasAp. The procedure: Circular Dichroism. Circular dichroism experiments were performed on a Jasco J-810 spectropolarimeter using 1 mm quartz cuvettes. All samples were recorded with 10 μM HasAp in 10 mM potassium phosphate (pH 7.4) at 25° C. from 190 to 260 nm at a scan rate of 50 nm/min, with each spectrum representing 5 accumulations. Data were acquired at […] resolution and 10 nm bandwidth. The mean residue ellipticity (degrees cm^2 dmol^−1) was calculated using CDPRO software as recommended by Jasco. Thermal denaturation studies were performed over a temperature range of 20-90° C. at 222 nm. Melting temperatures were determined by fitting denaturation data to a Boltzmann-Sigmoidal distribution in GraphPad Prism 8.

The subject of another data set is P. aeruginosa (PiuA). Conditions: cited from earlier work.
In data set [3] the test system is Has signaling cascade (hasR promoter). As to the kind of experiment: hasR-lacZ β-galactosidase transcriptional reporter assay. It is filed as cell-based, Pseudomonas aeruginosa. The following applies: for transcriptional activation of the hasR promoter (Has signaling): 1 μM pre-formed HasAp complex, relative to heme (holo-HasAp). The method, then:
Transcriptional Reporter Assay. The chromosomal fusions of the PhasR-lacZ and promoterless lacZ gene were previously constructed and used to report on transcriptional activation of the Has signaling cascade. For all β-gal assays, strains were grown overnight in 50 mL LB broth with shaking at 37° C. Cells were harvested by centrifugation and resuspended in M9 media. Strains were then inoculated at A600=0.05 in triplicate in 25 mL of M9 minimal medium and cultured for 3 h to deplete bacterial iron stores. Growth cultures were then supplemented with 1 μM of either holo-HasAp, GaPPIX-HasAp, FeSal-HasAp or GaSal-HasAp. Aliquots (1 mL) at 0 (just prior to supplementation), 2 and 5 h post supplementation were harvested and assayed for […] activity as described previously.
Testing new GaSal analogs (KD<1 μM) for inhibition of heme sensing by transcriptional reporter assays. Transcriptional reporter assays to determine inhibition of the dependent CSS cascade are performed. It was previously shown that GaSal-HasAp inhibits transcriptional activation of the has operon (FIG. 10B). Furthermore, as the deletion of hasR attenuates virulence, inhibition of the signaling pathway combined with decreased heme uptake is a viable therapeutic strategy. PAO1 hasR-lacZ cultures are grown under iron limiting conditions in defined media (M9 or SSM) pelleted and washed to remove exogenous HasAp. Cells are resuspended to a final OD600 of 0.05 and supplemented with 1.0 μM HasAp reconstituted with heme or selected GaSal derivatives. Samples are removed at various times (0.5-5 h) and assayed for β-Gal activity and corrected for differences in OD600. Competition assays are also performed in the presence of varying heme and salophen concentrations.

Data set [4] addresses T1, HasAp. As to the kind of experiment: Saturation transfer difference NMR in PAO1 ΔhasAp supernatant. Conditions: GaSal 1 mM, HasAp 10 μM, PAO1 ΔhasAp supernatant. Format: binding. The method, then: (§1) Saturation Transfer Difference NMR. PAO1 ΔhasAp was cultured overnight from a single colony in LB Broth. The cells were harvested by centrifugation and resuspended in M9 Minimal Media. 10 mL of M9 were inoculated at A600˜0.05 and grown for 3 h. Cell-free supernatant was obtained by centrifugation and subsequent filter-sterilization by a […] syringe filter. Supernatant was then used as the solvent for subsequent STD experiments. Final sample volume contained 600 μL of supernatant with or without 10 μM HasAp (as a negative control) and 5% D2O for solvent locking.
(§2) The STD experiments were performed at 25° C. on an Agilent DD2 500 MHz spectrometer. The vendor supplied pulse sequences, dpfgse_satxfer.c was used, the on- and off-resonance fids are subtracted in-place through phase-cycling, to yield only the difference fid. Selective saturation was performed for 2.5 s and consisted of 50 ms Gaussian pulses separated by a 1-ms delay at a field strength of 50 Hz. […]
(§3) Determine the binding mode of GaSal and top derivatives by STD-, ^1H-^15N HSQC-NMR, and HDX-MS. […] Following incubation (4 h) 4,4-dimethyl-4-silapentane-1-sulfonic acid (DSS, 3 μL in D20) is added as internal standard and spectra recorded as reported. […] Combined chemical shift differences between the apo and each of the titration points are calculated using the following equation: […]

Data set [5] concerns HasAp. The description is as above. It is filed as binding, Pseudomonas aeruginosa. Conditions: 1H NMR, 24 hr. The procedure:
as §1, §2, §3

Data set [6] concerns P. aeruginosa PAO1 and mutants. As to the kind of experiment: Growth curves / antibacterial activity in M9 minimal medium. The following applies: M9 minimal media, 96-well plate. It is filed as cell-based, Pseudomonas aeruginosa. The procedure:
Growth Curves. P. aeruginosa strains were grown overnight in 50 mL LB Broth with shaking at 37° C. Cells were harvested by centrifugation and resuspended in M9 minimal medium. Strains were then inoculated at A600=0.05 in 10 mL M9 minimal medium and grown for 3 h to deplete bacterial iron stores. Cultures were then plated in 96-well plates (Costar clear, flat-bottom with lid, Corning Inc) at A600≈0.05 to a final volume of 200 μL in M9 medium. Supplements (2 μL) were added as 100× stock solutions. Growth curves were recorded at 600 nm with a Biotek Synergy™ HT plate reader over 16 h of growth with shaking at 37° C. To account for background absorbance, blank wells were prepared with the same supplements but only M9 medium without culture. The blank wells were subtracted from the average of three growth wells per condition.

Structures are written as SMILES. Values joined by “and” are separate entries in the source; they are usually repeats but may differ in a detail not shown here. Identical values can stand only once. “Also recorded” adds a separate entry of the source.

On to `C=CC1=C(C)c2cc3[nH]c(cc4nc(cc5[nH]c(cc1n2)c(C)c5CCC(=O)O)C(CCC(=O)O)=C4C)c(C)c3C=C.[Fe+3]` [Heme], for which the Kd on HasAp [1] is 350 ± 50 nM. Also, the “melting temperature of HasAp” value on HasAp [2] is above 90 °C.
Turning to `CC(C)(O/N=C(\C(=O)N[C@@H]1C(=O)N2C(C(=O)[O-])=C(C[N+]3(CCNC(=O)c4ccc(O)c(O)c4Cl)CCCC3)CS[C@H]12)c1csc(N)n1)C(=O)O` [Cefiderocol], the resistance rates with P. aeruginosa (PiuA) (at 10×MIC) was < 7×10^−9. Further, the “increase in MIC” value in the data set with P. aeruginosa (PiuA) (mutations with a deficiency in PiuA) was around 20 fold.
Regarding `Oc1ccccc1C=Nc1ccccc1N=Cc1ccccc1O.[Ga+3]` [GaSal, GaSalophen Nitrate], at HasAp [1], the Kd amounted to 1110 ± 220 nM and the “binding to HasAp weaker than heme” value is reported as around 3 fold. Further, in data set [3], the “transcriptional activation of the hasR promoter (Has signaling)” value (“transcriptional activation” below) was “inhibited the holo-HasAp activation of the cell surface signaling cascade; also recorded: inhibition of transcriptional activation relative to heme or GaPPIX; also recorded: decreased transcriptional activation relative to heme”. Besides, the β-galactosidase production result in data set [3] (at 5 hours) is “increased β-galactosidase when compared to FeSal”. In addition, the “melting temperature of HasAp” value on HasAp [2] was found to be 65 °C. Moreover, the “STD NMR saturation transfer from HasAp” value on HasAp [4] is “saturation transfer among all protons of GaSal”. Moreover, the “stability in PAO1 ΔhasAp supernatant” value with HasAp [5] was “still intact after 24 hr”.
For the molecule `C=CC1=C(C)c2cc3[nH]c(cc4nc(cc5[nH]c(cc1n2)c(C)c5CCC(=O)O)C(CCC(=O)O)=C4C)c(C)c3C=C.[Ga+3]` [GaPPIX, Gallium protoporphyrin IX], on HasAp [1], the Kd was 280 ± 30 nM. Also, the “growth of P. aeruginosa PAO1” value in data set [6] is “inhibits growth”. In addition, the “transcriptional activation” value in data set [3] is given as “no inhibition of transcriptional activation relative to heme; also recorded: increased (2 h) or similar transcriptional activation to heme”.
For the molecule `Oc1ccccc1C=Nc1ccccc1N=Cc1ccccc1O.[Fe+3]` [FeSal, FeSal Chloride], on HasAp [1], the Kd was 1100 nM and 1050 nM; the “binding to HasAp weaker than heme” value is recorded as around 3 fold. The “transcriptional activation” value in data set [3] is on record as “inhibited the holo-HasAp activation of the cell surface signaling cascade; also recorded: inhibition of transcriptional activation relative to heme or GaPPIX; also recorded: decreased transcriptional activation relative to heme”.
